Experimental data from ChEMBL document CHEMBL5050843, “Amide substituted thiazoles as protein secretion inhibitors” (2019).

Tests used:
Format in all cases: functional, cell-based
[1] = Inhibition of constitutively active VCAMss-Gluc secretion in human Flp-In-T-REx-293 cells measured by Gaussia luciferase reporter gene method
[2] = Inhibition of TNF-alpha-FL-Gluc secretion in doxycyclin-induced human Flp-In-T-REx-293 cells measured by Gaussia luciferase reporter gene method
[3] = Inhibition of PD1ss-Gluc secretion in doxycyclin-induced human Flp-In-T-REx-293 cells measured by Gaussia luciferase reporter gene method
[4] = Inhibition of PR1ss-Gluc secretion in doxycyclin-induced human Flp-In-T-REx-293 cells measured by Gaussia luciferase reporter gene method
[5] = Inhibition of constitutively active PR1ss-Gluc secretion in human Flp-In-T-REx-293 cells measured by Gaussia luciferase reporter gene method

CC(C)(C)c1csc(NC(=O)c2ccc(Cl)s2)n1
IC50 [1]: 2 µM
IC50 [2]: 8 µM

CCC(C)n1cc(CC(=O)Nc2nc(C(C)(C)C)cs2)c2cc(Cl)ccc21 (stereo not given)
IC50 [3]: 4.38 µM
IC50 [4]: > 25 µM

CC(C)(C)c1nc(NC(=O)c2cc3c(s2)CCCC3)sc1C#N
IC50 [1]: > 80 µM
IC50 [2]: > 80 µM

CC(C)(C)Cc1csc(NC(=O)Cc2cn(Cc3ccccc3Cl)c3ccc(Cl)cc23)n1
IC50 [3]: 6.18 µM
IC50 [2]: > 25 µM
IC50 [4]: > 25 µM

CC(C)(C)c1csc(NC(=O)c2ccc(-c3ccc(Cl)cc3Cl)s2)n1
IC50 [1]: 2.27 µM
IC50 [2]: 4.31 µM

CC(C)(C)c1csc(NC(=O)Cc2cn(Cc3ccccc3)c3cc(Cl)ncc23)n1
IC50 [3]: 8.34 µM
IC50 [2]: 23.7 µM
IC50 [4]: 20.7 µM

C[C@@H](c1ccccc1Cl)n1cc(CC(=O)Nc2nc(C(C)(C)C)cs2)c2cc(Cl)ccc21
IC50 [3]: 0.875 µM
IC50 [2]: > 25 µM
IC50 [4]: > 25 µM

CC(C)(C)c1csc(NC(=O)Cc2cn(CC(=O)Nc3ccccc3O)c3ccc(Cl)cc23)n1
IC50 [3]: 10.4 µM
IC50 [2]: 17.7 µM
IC50 [4]: 19.1 µM

CC(C)(C)c1csc(NC(=O)Cc2cn(Cc3ccccc3S(C)(=O)=O)c3ccc(Cl)cc23)n1
IC50 [3]: 13.2 µM
IC50 [4]: > 25 µM

CC(C)n1cc(CC(=O)Nc2nc(C(C)(C)C)cs2)c2cc(Cl)ccc21
IC50 [1]: 0.587 µM
IC50 [3]: 4.4 µM
IC50 [5]: > 25 µM
IC50 [4]: > 25 µM

COc1ccc2c(c1)c(CC(=O)Nc1nc(C(C)(C)C)cs1)cn2Cc1ccccc1
IC50 [3]: 3.41 µM
IC50 [4]: > 25 µM

CC(C)(C)c1csc(NC(=O)Cc2cn(Cc3nc4ccccc4o3)c3ccc(Cl)cc23)n1
IC50 [3]: 9.71 µM
IC50 [2]: > 25 µM
IC50 [4]: > 25 µM

CC(C)(C)c1csc(NC(=O)c2csc3c2CCCC3)n1
IC50 [1]: 14 µM
IC50 [2]: 73 µM

COc1ccc2cc(C(=O)Nc3nc(C(C)(C)C)cs3)sc2c1
IC50 [1]: 1.8 µM
IC50 [2]: > 80 µM

CNC(=O)c1ccc2sc(C(=O)Nc3nc(C(C)(C)C)cs3)cc2c1
IC50 [3]: 8.8 µM
IC50 [4]: 7.44 µM

CC(C)(C)c1csc(NC(=O)c2cn(Cc3ccccc3)c3ccccc23)n1
IC50 [3]: 7.05 µM
IC50 [4]: > 25 µM

CC(C)(C)c1csc(NC(=O)Cc2cn(-c3ccccn3)c3ccc(Cl)cc23)n1
IC50 [3]: 8.72 µM
IC50 [4]: > 25 µM

CC(C)(C)c1csc(NC(=O)Cc2cn(-c3cccc(Cl)c3)c3ccc(Cl)cc23)n1
IC50 [3]: 4.14 µM
IC50 [4]: > 25 µM

CCCc1csc(NC(=O)c2cc3c(s2)CCCC3)n1
IC50 [1]: 2.6 µM
IC50 [2]: > 80 µM

CC(C)(C)c1csc(NC(=O)Cc2cn(Cc3ncco3)c3ccc(Cl)cc23)n1
IC50 [3]: 23.5 µM
IC50 [2]: > 25 µM
IC50 [4]: > 25 µM

CC(C)c1csc(NC(=O)c2cc3c(s2)CCCC3)n1
IC50 [1]: 1.2 µM
IC50 [2]: > 80 µM

CC(C)(C)c1csc(NC(=O)Cc2cn(Cc3ccccc3C(N)=O)c3ccc(Cl)cc23)n1
IC50 [3]: > 25 µM
IC50 [4]: > 25 µM

CN[C@@H](Cc1cn(Cc2ccc(F)cc2)c2ccccc12)C(=O)Nc1nc(C(C)(C)C)cs1
IC50 [3]: > 25 µM
IC50 [4]: > 25 µM

CC(C)(C)c1csc(NC(=O)Cc2cn(C3CCCCC3)c3ccc(Cl)cc23)n1
IC50 [3]: 3.36 µM
IC50 [2]: > 25 µM
IC50 [4]: > 25 µM

CC(C)(C)c1csc(NC(=O)c2cc(Br)c(Br)s2)n1
IC50 [1]: 3.8 µM
IC50 [2]: 26 µM

CC(C)(C)c1csc(NC(=O)Cc2cn(Cc3ccon3)c3ccc(Cl)cc23)n1
IC50 [3]: 10.3 µM
IC50 [2]: > 25 µM

CC1(C)CCc2sc(NC(=O)c3cc4c(s3)CCCC4)nc21
IC50 [1]: 0.4 µM
IC50 [2]: > 80 µM

CC(C)(C)c1csc(NC(=O)Cc2cn(Cc3ccccc3)c3ccncc23)n1
IC50 [3]: 8.6 µM
IC50 [2]: > 25 µM
IC50 [4]: > 25 µM

CCC1CCc2sc(C(=O)Nc3nc(C(C)(C)C)cs3)cc2C1 (stereo not given)
IC50 [1]: 7.9 µM
IC50 [2]: > 80 µM

CC(C)(C)c1csc(NC(=O)Cc2cn(Cc3ccccc3)c3ncccc23)n1
IC50 [3]: 12.2 µM
IC50 [2]: > 25 µM
IC50 [4]: > 25 µM

CC(C)(C)c1csc(NC(=O)Cc2cn(Cc3ccccc3)c3ccc(Br)cc23)n1
IC50 [3]: 6.13 µM
IC50 [4]: > 25 µM

CC(C)(C)c1csc(NC(=O)Cc2cn(C3CCCC3)c3ccc(Cl)cc23)n1
IC50 [3]: 6.52 µM
IC50 [4]: > 25 µM

CC(C)(C)c1csc(NC(=O)Cc2cn(CCc3ccccc3)c3ccc(Cl)cc23)n1
IC50 [3]: 4.15 µM
IC50 [4]: > 25 µM

CC(=O)N1CCc2sc(C(=O)Nc3nc(C(C)(C)C)cs3)cc2C1
IC50 [1]: > 50 µM
IC50 [2]: > 50 µM

CC(C)(C)c1csc(NC(=O)c2cc3ccccc3n2Cc2ccccc2)n1
IC50 [3]: 8.29 µM
IC50 [4]: > 25 µM

CC(C)(C)c1csc(NC(=O)Cc2cn(Cc3ccc(F)cc3Cl)c3ccc(Cl)cc23)n1
IC50 [3]: 1.15 µM
IC50 [2]: > 25 µM
IC50 [4]: > 25 µM

O=C(Nc1nc(C2CC2)cs1)c1cc2c(s1)CCCC2
IC50 [1]: 11 µM
IC50 [2]: > 80 µM

CC(C)(C)c1csc(NC(=O)c2ccc(-c3ccccc3)s2)n1
IC50 [1]: 1.3 µM
IC50 [2]: 4.5 µM

Cc1cc(C(=O)Nc2nc(C(C)(C)C)cs2)cn1Cc1ccccc1
IC50 [3]: 4.74 µM
IC50 [2]: > 25 µM
IC50 [4]: > 25 µM

CC(C)(C)c1csc(NC(=O)c2cc3c(s2)CCC3)n1
IC50 [1]: 1 µM
IC50 [2]: 18 µM

CC(C)OC(C)(C)c1csc(NC(=O)Cc2cn(Cc3ccccc3Cl)c3ccc(Cl)cc23)n1
IC50 [3]: 0.715 µM
IC50 [2]: 14.8 µM
IC50 [4]: > 25 µM

CC(C)(C)c1csc(NC(=O)Cc2cn(-c3ccc(Cl)cc3)c3ccc(Cl)cc23)n1
IC50 [3]: 2.69 µM
IC50 [4]: > 25 µM

CC(C(=O)Nc1nc(C(C)(C)C)cs1)c1cn(Cc2ccccc2)c2ccc(Cl)cc12 (stereo not given)
IC50 [3]: 6.06 µM
IC50 [2]: > 25 µM
IC50 [4]: > 25 µM

Cc1cc(Cn2cc(CC(=O)Nc3nc(C(C)(C)C)cs3)c3cc(Cl)ccc32)ccn1
IC50 [3]: 6.1 µM
IC50 [2]: > 25 µM
IC50 [4]: 24 µM

Cc1cnccc1Cn1cc(CC(=O)Nc2nc(C(C)(C)C)cs2)c2cc(Cl)ccc21
IC50 [3]: 2.68 µM
IC50 [2]: 19.1 µM
IC50 [4]: > 25 µM

COC(C)(C)c1csc(NC(=O)Cc2cn(Cc3ccccc3Cl)c3ccc(Cl)cc23)n1
IC50 [3]: 1.04 µM
IC50 [2]: 13.6 µM
IC50 [4]: > 25 µM

CC(=O)N(C)[C@@H](Cc1cn(Cc2ccc(F)cc2)c2ccccc12)C(=O)Nc1nc(C(C)(C)C)cs1
IC50 [3]: > 25 µM
IC50 [4]: > 25 µM

CC(C)(C)c1csc(NC(=O)c2cc3ccc(Br)cc3s2)n1
IC50 [1]: 3.3 µM
IC50 [2]: > 80 µM

CC(C)(C)c1csc(NC(=O)c2ccc(Br)s2)n1
IC50 [1]: 23 µM
IC50 [2]: > 80 µM

CC(C)(C)c1csc(NC(=O)Cc2cn(Cc3ccc(C(N)=O)cc3)c3ccc(Cl)cc23)n1
IC50 [3]: 8.84 µM
IC50 [2]: > 25 µM
IC50 [4]: > 25 µM

CC(C)(C)c1csc(NC(=O)Cc2cn(-c3ccccc3Cl)c3ccc(Cl)cc23)n1
IC50 [3]: 4.4 µM
IC50 [4]: > 25 µM

CC(C)(C)OC(=O)N1CCc2sc(C(=O)Nc3nc(C(C)(C)C)cs3)cc2C1
IC50 [1]: 20 µM
IC50 [2]: > 50 µM

Cc1cc(C(=O)Nc2nc(C(C)(C)C)cs2)sc1-c1ccccc1
IC50 [1]: 4.5 µM
IC50 [2]: 31 µM

CC(C)(C)c1csc(NC(=O)Cc2cn(Cc3ccccc3)c3ccc(C(N)=O)cc23)n1
IC50 [3]: > 25 µM
IC50 [4]: > 25 µM

CC(C)(C)c1csc(NC(=O)Cc2cn(Cc3ccccc3)c3ccc(C#N)cc23)n1
IC50 [3]: 6.06 µM
IC50 [4]: > 25 µM

CCC(C)(C)c1csc(NC(=O)Cc2cn(Cc3ccccc3Cl)c3ccc(Cl)cc23)n1
IC50 [3]: 0.727 µM
IC50 [2]: > 24.2 µM
IC50 [4]: > 25 µM

CC(C)(C)c1nsc(NC(=O)c2cc3c(s2)CCCC3)n1
IC50 [1]: 0.43 µM
IC50 [2]: 4.7 µM

CC(C)(C)c1csc(NC(=O)Cc2cn(Cc3ncccn3)c3ccc(Cl)cc23)n1
IC50 [3]: 23.3 µM
IC50 [2]: > 25 µM
IC50 [4]: > 25 µM

CC(C)(C)c1csc(NC(=O)Cc2cn(C3CCc4ccccc43)c3ccc(Cl)cc23)n1 (stereo not given)
IC50 [3]: 6.62 µM
IC50 [2]: > 25 µM
IC50 [4]: > 25 µM

CC(C)(C)c1csc(NC(=O)Cc2cn(Cc3ccccc3C#N)c3ccc(Cl)cc23)n1
IC50 [3]: 3.65 µM
IC50 [4]: > 25 µM

CC(c1ccccc1Cl)n1cc(CC(=O)Nc2nc(C(C)(C)C)cs2)c2cc(Cl)ccc21 (stereo not given)
IC50 [3]: 1.55 µM
IC50 [2]: > 25 µM
IC50 [4]: > 25 µM

CC(C)(C)c1csc(NC(=O)Cc2cn(Cc3cocn3)c3ccc(Cl)cc23)n1
IC50 [3]: 22 µM
IC50 [2]: > 25 µM

CC(C)(C)c1csc(NC(=O)Cc2cn(Cc3ccc(C#N)cc3)c3ccc(Cl)cc23)n1
IC50 [3]: 4.14 µM
IC50 [2]: 23.8 µM
IC50 [4]: > 25 µM

CC(C)(C)Cc1csc(NC(=O)Cc2csc3ccc(Cl)cc23)n1
IC50 [1]: 2480 µM
IC50 [3]: 6.99 µM
IC50 [5]: > 25 µM
IC50 [4]: > 25 µM

CC(C)(C)c1csc(NC(=O)c2cc3c([nH]2)CCCC3)n1
IC50 [1]: 2.5 µM
IC50 [2]: > 80 µM

C[C@H](c1ccccc1Cl)n1cc(CC(=O)Nc2nc(C(C)(C)C)cs2)c2cc(Cl)ccc21
IC50 [3]: 4.16 µM
IC50 [2]: > 25 µM
IC50 [4]: > 25 µM

COC(=O)c1sc(NC(=O)c2cc3c(s2)CCCC3)nc1C(C)(C)C
IC50 [1]: 3.9 µM
IC50 [2]: > 80 µM

CC(C)(C)c1csc(NC(=O)c2cc(Br)cs2)n1
IC50 [1]: 14 µM
IC50 [2]: 72 µM

CC(C)Cn1cc(CC(=O)Nc2nc(C(C)(C)C)cs2)c2cc(Cl)ccc21
IC50 [3]: 5.38 µM
IC50 [4]: > 25 µM

CC(c1ccccc1)n1cc(CC(=O)Nc2nc(C(C)(C)C)cs2)c2cc(Cl)ccc21 (stereo not given)
IC50 [1]: 0.217 µM
IC50 [3]: 2.66 µM
IC50 [5]: > 25 µM
IC50 [4]: > 25 µM

CC(C)(C)c1csc(NC(=O)Cc2cn(Cc3c(F)cccc3Cl)c3ccc(Cl)cc23)n1
IC50 [3]: 6.33 µM
IC50 [2]: > 25 µM
IC50 [4]: > 25 µM

Cc1c(CC(=O)Nc2nc(C(C)(C)C)cs2)c2ccccc2n1Cc1ccccc1Cl
IC50 [3]: 1.88 µM
IC50 [2]: > 21.3 µM
IC50 [4]: > 25 µM

CC(C)(C)c1csc(NC(=O)c2cc3c(s2)CCCCC3)n1
IC50 [1]: 0.58 µM
IC50 [2]: 4.3 µM

CC(C)(C)c1csc(NC(=O)Cc2cn(Cc3ccccc3)c3nc(Cl)ccc23)n1
IC50 [3]: 10 µM
IC50 [2]: > 25 µM
IC50 [4]: > 25 µM
